Experimental data: US8247441B2, “Chromene compounds, a process for their preparation and pharmaceutical compositions containing them” (Les Laboratoires Servier, priority 2009, dated 2012)

Legend:
[1] = target: human D3 dopaminergic receptor (Homo sapiens, UniProt P35462); assay: Affinity for human D3 receptors stably expressed in CHO cells, [3H]-spiperone competition; assay type: binding; conditions: CHO cell membranes, 0.5 nM [3H]-spiperone, 1 hour at 30° C.; read-out: Affinity (pKi) hD3 (converted)
human D3 dopaminergic receptor, sequence (P35462 whole entry): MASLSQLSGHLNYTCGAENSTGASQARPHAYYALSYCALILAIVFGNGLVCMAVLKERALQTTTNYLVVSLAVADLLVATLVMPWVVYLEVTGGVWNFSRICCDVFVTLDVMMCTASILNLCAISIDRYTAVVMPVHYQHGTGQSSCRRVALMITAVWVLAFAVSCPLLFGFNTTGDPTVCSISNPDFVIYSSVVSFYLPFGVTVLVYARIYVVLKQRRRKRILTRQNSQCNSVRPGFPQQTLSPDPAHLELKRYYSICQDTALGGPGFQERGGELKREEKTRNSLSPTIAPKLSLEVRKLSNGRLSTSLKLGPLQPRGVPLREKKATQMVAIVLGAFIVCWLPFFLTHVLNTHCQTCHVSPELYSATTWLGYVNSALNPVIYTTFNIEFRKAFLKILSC
Protocol: (§1) Determination of Affinity for Human D3, D2S and D2L Receptors Stably Expressed in CHO Cells
(§2) The various cell lines are cultured to confluence and then the cells are detached and are homogenised using a Polytron in a Tris-HCl buffer (50 mM, pH 7.4) containing 5 mM MgCl2. The cell debris is then centrifuged (15 minutes at 4° C.) and the sediment is taken up in an appropriate volume of HEPES buffer (20 mM) containing 150 mM NaCl and is frozen at −80° C. On the day of the experiment, the membranes are taken up in incubation buffer containing 50 mM Tris (pH 7.4), 120 mM NaCl, 5 mM KCl, 2 mM CaCl2 and 5 mM MgCl2. […] The non-specific binding is determined using 10 μM raclopride. At the end of the incubation period, the samples are filtered through Unifilter GF/B type filters pre-treated with PEI (0.1%) and washed several times with Tris-HCl filtration buffer (50 mM, pH 7.4) containing 120 mM NaCl. The radioactivity retained on the filters is counted after addition of scintillation liquid, with the aid of a scintillation counter. […] The results are expressed in terms of pKi=−log Ki.

[2] = target: human D2L dopaminergic receptor (Homo sapiens, UniProt P14416); assay: Affinity for human D2L receptors stably expressed in CHO cells, [3H]-spiperone competition; assay type: binding; conditions: CHO cell membranes, 0.5 nM [3H]-spiperone, 1 hour at 30° C.; read-out: Affinity (pKi) hD2L (converted)
human D2L dopaminergic receptor, sequence (P14416 whole entry): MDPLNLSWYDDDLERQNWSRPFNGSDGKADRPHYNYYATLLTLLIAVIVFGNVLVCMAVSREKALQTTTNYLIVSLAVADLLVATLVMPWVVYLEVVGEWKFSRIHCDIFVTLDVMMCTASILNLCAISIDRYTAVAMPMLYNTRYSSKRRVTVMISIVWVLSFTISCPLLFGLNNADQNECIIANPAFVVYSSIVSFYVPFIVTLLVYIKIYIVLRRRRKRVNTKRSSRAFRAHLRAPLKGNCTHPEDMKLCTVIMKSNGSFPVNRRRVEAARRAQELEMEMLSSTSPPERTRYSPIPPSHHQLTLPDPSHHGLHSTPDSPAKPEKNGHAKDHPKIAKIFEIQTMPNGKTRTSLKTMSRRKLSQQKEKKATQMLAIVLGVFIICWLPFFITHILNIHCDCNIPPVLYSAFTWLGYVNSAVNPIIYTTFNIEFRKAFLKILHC
Protocol: as §1, §2

[3] = target: human D2S dopaminergic receptor (Homo sapiens, UniProt P14416); assay: Affinity for human D2S receptors stably expressed in CHO cells, [3H]-spiperone competition; assay type: binding; conditions: CHO cell membranes, 0.5 nM [3H]-spiperone, 1 hour at 30° C.; read-out: Affinity (pKi) hD2S (converted)
human D2S dopaminergic receptor, sequence (P14416 1-414 isoform P14416-2): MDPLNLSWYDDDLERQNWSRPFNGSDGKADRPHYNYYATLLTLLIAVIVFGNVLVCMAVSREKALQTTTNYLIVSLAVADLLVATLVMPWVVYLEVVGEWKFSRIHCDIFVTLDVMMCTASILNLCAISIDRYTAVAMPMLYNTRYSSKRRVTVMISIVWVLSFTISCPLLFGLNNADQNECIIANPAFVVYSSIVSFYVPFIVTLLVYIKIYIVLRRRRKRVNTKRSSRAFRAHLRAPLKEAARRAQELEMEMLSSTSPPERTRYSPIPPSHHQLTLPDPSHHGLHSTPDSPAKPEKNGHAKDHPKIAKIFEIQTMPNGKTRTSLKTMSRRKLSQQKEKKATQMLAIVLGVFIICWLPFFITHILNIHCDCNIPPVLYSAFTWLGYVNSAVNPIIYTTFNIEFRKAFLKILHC
Protocol: as §1, §2

[4] = test system: D3/D2 receptor; assay: Inhibition of hypothermia induced by the dopaminergic agonist PD128,907; assay type: in vivo, rat; conditions: for Δ (° C.) ± S.E.M.s: PD128,907 0.63 mg/kg s.c. at T0, rectal temperature 30 min later vs baseline; for ID50 (Inhibitory Dose50): inhibition of hypothermia induced by PD128,907 0.63 mg/kg s.c.
Protocol: Inhibition of Induction of Hypothermia Induced by the Dopaminergic Agonist PD128,907
In male rats of the Wistar strain, the baseline (rectal) temperature is measured and then the compound under test or the vehicle is administered by the oral route. Sixty minutes later, PD128,907 (0.63 mg/kg, s.c.), a D3/D2 dopaminergic agonist, is injected. Thirty minutes later, the body temperature is re-determined and the difference (Δ) from the baseline temperature is calculated.

[5] = male Wistar rats, compound 0.04 mg/kg p.o. at T-60 min
[6] = male Wistar rats, compound 0.16 mg/kg p.o. at T-60 min
[7] = male Wistar rats, compound 0.63 mg/kg p.o. at T-60 min
[8] = male Wistar rats, compound 2.5 mg/kg p.o. at T-60 min
[9] = male Wistar rats, compound 10.0 mg/kg p.o. at T-60 min

Row | Ki [1] | Ki [2] | Ki [3] | SMILES | Δ (° C.) ± S.E.M.s [4, 5] | Δ (° C.) ± S.E.M.s [4, 6] | Δ (° C.) ± S.E.M.s [4, 7] | Δ (° C.) ± S.E.M.s [4, 8] | Δ (° C.) ± S.E.M.s [4, 9] | ID50 (Inhibitory Dose50) ([4]; male Wistar rats) | Blocking of PD 128,907-induced hypothermia ([4]; male Wistar rats, oral route) | Effect of PD 128,907 on body temperature ([4]; in the presence of the vehicle)
1 | 2 nM | 100 nM | 117 nM | CC(=O)N[C@H]1CC[C@H](CCN2C[C@H]3COc4ccc(C#N)cc4[C@@H]3C2)CC1.Cl [Example 2, N-(trans-4-{2-[(3aS,9bR)-8-cyano-1,3a,4,9b-tetrahydrochromeno[3,4-c]pyrrol-2(3H)-yl]ethyl}cyclohexyl)acetamide hydrochloride] | −1.73 ± 0.26 °C | −1.33 ± 0.11 °C | −0.97 ± 0.28 °C | −0.4 ± 0.13 °C | +0.1 ± 0.33 °C | 1.33 mg/kg, p.o. |  | 
2 | 1.86 nM | 50.1 nM | 56.2 nM | Cl.N#Cc1ccc2c(c1)[C@@H]1CN(CC[C@H]3CC[C@H](NC(=O)C4CCC4)CC3)C[C@H]1CO2 [Example 3, N-(trans-4-{2-[(3aS,9bR)-8-cyano-1,3a,4,9b-tetrahydrochromeno[3,4-c]pyrrol-2(3H)-yl]ethyl}cyclohexyl)cyclobutanecarboxamide hydrochloride] | −1.65 ± 0.09 °C | −1.62 ± 0.07 °C | −0.83 ± 0.20 °C | −0.33 ± 0.16 °C | +0.35 ± 0.18 °C | 0.64 mg/kg, p.o. | blocked in dose-dependent manner | 
3 |  |  |  | CCCN1CCO[C@@H]2c3cc(O)ccc3OC[C@H]21 [PD128,907, reference compound] |  |  |  |  |  |  |  | brings about hypothermia
